# How the values were obtained:
# [1] = log P determination by LC-MS in the acidic range (HCOOH); format: physicochemical; conditions: LC-MS column with aqueous formic acid/acetonitrile gradient, pH 2.7, 0.1% aqueous formic acid and acetonitrile
# Description: The LC-MS determination in the acidic range is carried out at pH 2.7 using 0.1% aqueous formic acid and acetonitrile (contains 0.1% formic acid) as mobile phases; linear gradient from 10% acetonitrile to 95% acetonitrile.
# Calibration is carried out using unbranched alkan-2-ones (with 3 to 16 carbon atoms) with known log P values (determination of the log P values by the retention times using linear interpolation between two successive alkanones).
# [2] = system: green peach aphid (Myzus persicae); experiment: Myzus test (MVZUPE spray treatment); format: in vivo; conditions: after 6 days, Chinese cabbage leaf discs
# Description: (§1) To produce a suitable preparation of active compound, one part by weight of active compound is mixed with the stated amounts of solvents and emulsifier, and the concentrate is diluted with emulsifier-containing water to the desired concentration.
# Discs of Chinese cabbage leaves (Brassica pekinensis) which are infested by all stages of the green peach aphid (Myzus persicae) are sprayed with an active compound preparation of the desired concentration.
# (§2) After 6 days, the effect in percent is determined. 100% means that all aphids have been killed; 0% means that none of the aphids have been killed.
# [3] = system: larvae of the mustard beetle (Phaedon cochleariae); experiment: Phaedon test (PHAECO spray treatment); format: in vivo; conditions: application rate 500 g/ha, after 7 days, Chinese cabbage leaf discs
# Description: [table] To produce a suitable preparation of active compound, one part by weight of active compound is mixed with the stated amounts of solvents and emulsifier, and the concentrate is diluted with emulsifier-containing water to the desired concentration. Discs of Chinese cabbage leaves (Brassica pekinensis) are sprayed with an active compound preparation of the desired concentration and, after drying, populated with larvae of the mustard beetle (Phaedon cochleariae).
# [4] = system: caterpillars of the armyworm (Spodoptera frugiperda); experiment: Spodoptera frugiperda test (SPODFR spray treatment); format: in vivo; conditions: after 6 days, maize leaf discs
# Description: as §1
# Discs of maize leaves (Zea mays) are sprayed with an active compound preparation of the desired concentration and, after drying, populated with caterpillars of the armyworm (Spodoptera frugiperda).
# as §2
smiles,measurement,setting,value
CON1CCC2(CC1)OC(=O)C(c1c(C)cc(C)cc1C)=C2O [I-a-1],chromatographic logP,[1],2.15
CCc1cc(C)cc(C)c1C1=C(O)C2(CCN(OC)CC2)OC1=O [I-a-3],activity (aphids killed),[2]; application rate 500 g/ha,100%
CON1CCC2(CC1)OC(=O)C(c1cc(-c3ccc(Cl)cc3)ccc1C)=C2O [I-a-4],activity (aphids killed),[2]; application rate 500 g/ha,100%
same,activity (beetle larvae killed),[3],100%
CON1CCC2(CC1)OC(=O)C(c1c(C)ccc(-c3ccc(Cl)cc3)c1C)=C2O [I-a-5],activity (killed),[4]; application rate 500 g/ha,≥ 80%
same,activity (aphids killed),[2]; application rate 100 g/ha,100%
CCc1cc(-c2ccc(Cl)cc2)cc(C)c1C1=C(O)C2(CCN(OC)CC2)OC1=O [I-a-6],activity (beetle larvae killed),[3],100%
CCON1CCC2(CC1)OC(=O)C(c1c(C)cc(C)cc1C)=C2O [I-a-7],activity (aphids killed),[2]; application rate 500 g/ha,100%
CON1CCC2(CC1)OC(=O)C(c1c(C)ccc(-c3ccc(F)cc3)c1C)=C2O [I-a-9],activity (aphids killed),[2]; application rate 500 g/ha,100%
CCc1cc(C)cc(CC)c1C1=C(O)C2(CCN(OC)CC2)OC1=O [I-a-10],activity (aphids killed),[2]; application rate 500 g/ha,100%
CCON1CCC2(CC1)OC(=O)C(c1c(CC)cc(C)cc1CC)=C2O [I-a-11],activity (aphids killed),[2]; application rate 500 g/ha,100%
CCON1CCC2(CC1)OC(=O)C(c1c(C)ccc(-c3ccc(Cl)cc3)c1C)=C2O [I-a-12],activity (killed),[4]; application rate 100 g/ha,≥ 100%
same,activity (aphids killed),[2]; application rate 500 g/ha,100%
CCON1CCC2(CC1)OC(=O)C(c1cc(-c3ccc(Cl)cc3)ccc1C)=C2O [I-a-13],activity (aphids killed),[2]; application rate 500 g/ha,100%
same,activity (beetle larvae killed),[3],100%
CCOC(=O)C1(OC(=O)Cc2c(C)cc(C)cc2C)CCN(OC)CC1 [II-1],chromatographic logP,[1],4.28
CCOC(=O)C1(O)CCN(OC)CC1 [XIV-1],chromatographic logP,[1],0.94
CCOC(=O)C1(O)CCN(OCC)CC1 [XIV-2],chromatographic logP,[1],1.16

# Source: patent US8592610B2, “Spiroheterocyclic tetronic acid derivatives” (Bayer CropScience AG, priority 2009, dated 2013)
